# Assay results as given in patent US20060063702A1, “Neuromedin U 2 receptor agonists and uses thereof” (priority 2004, published 2006).
# Entries after “also recorded” stand apart in the source; their conditions may differ. Where no end group is shown, it is not given here.
# Legend:
# human NMU-2R [1] = target: T1, human NMU-2R (Homo sapiens, UniProt Q9GZQ4); experiment: NMU-2R reporter gene (luciferase) assay in HEK-293/NMU-2R/3MCS/Luci cells; assay type: cell-based; settings: for activation of NMU-2R, expression of reporter gene luciferase: in the presence of forskolin 5 μmol/L
# T1 construct: expressed in transfected cells
# Protocol: Establishment of stable cell line: HEK-293 cells were maintained in DMEM with 10% FBS (Gibco) and 1% non-essential amino acid at 37° C. […] Twenty-four hours after transfection, cell culture medium was replaced with fresh medium containing G418 at final concentration of 800 mg/L. Stable cell line was generated using limited dilution based on the luciferase activity in the presence of NmU and forskolin (5 μmol/L). The stable cell line was named HEK-293/NMU-2R/3MCS/Luci cells. Luciferase assay and screening for NMU-2R agonists: The luciferase activity was measured according to the protocol from Promega. Briefly, 100 μL of HEK-293/NMU-2R/3MCS/Luci cells at 4×10^4 cells/mL were added into each well of white 96 -well plate (flat, clear bottom, Costar). The cells were maintained in DMEM containing 10% FBS (Gibco) and 1% non-essential amino acid, and incubated at 37° C., 5% CO2 overnight. […] Finally, 110 μL of luciferase substrate Bright GloTM (Promega) was added into each well. Luciferase activity was measured using […] (Molecular Device).
# other GPCRs = experiment: Specificity assay in more than twenty other GPCR stable cell lines; assay type: cell-based
# Protocol: Several stable cell lines were generated to examine the specificity of the compounds. First, the activity of the compounds in cell line expressing the reporter gene alone were tested. Since the reporter gene cell line was not transfected with NMU-2R expression vector, compounds that can activate the reporter gene expression in this cell line were not NMU-2R agonists. In addition, the compounds in cell lines expressing other GPCRs were tested. More than twenty different GPCR stable cell lines were generated for the specificity assay.
# NMU-1R = target: T2, NMU-1R (Homo sapiens, UniProt Q9HB89); experiment: Activity for NMU-1R; assay type: cell-based
# T2 sequence (Q9HB89 1-426): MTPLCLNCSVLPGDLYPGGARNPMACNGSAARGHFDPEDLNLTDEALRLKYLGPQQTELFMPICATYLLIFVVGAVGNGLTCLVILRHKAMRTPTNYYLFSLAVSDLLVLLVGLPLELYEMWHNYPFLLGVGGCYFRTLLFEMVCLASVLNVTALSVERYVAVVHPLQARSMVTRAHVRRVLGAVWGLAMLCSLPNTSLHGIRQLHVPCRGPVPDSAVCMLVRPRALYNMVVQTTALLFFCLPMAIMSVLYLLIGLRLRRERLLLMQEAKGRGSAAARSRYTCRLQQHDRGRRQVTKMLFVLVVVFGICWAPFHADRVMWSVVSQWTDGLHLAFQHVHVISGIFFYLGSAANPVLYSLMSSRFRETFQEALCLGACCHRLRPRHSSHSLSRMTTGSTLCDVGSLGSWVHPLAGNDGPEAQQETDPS
# human NMU-2R [2] = target: T1, human NMU-2R; settings: literature refs 5-7, 15-20; cited from earlier work
# T1 sequence (Q9GZQ4 whole entry): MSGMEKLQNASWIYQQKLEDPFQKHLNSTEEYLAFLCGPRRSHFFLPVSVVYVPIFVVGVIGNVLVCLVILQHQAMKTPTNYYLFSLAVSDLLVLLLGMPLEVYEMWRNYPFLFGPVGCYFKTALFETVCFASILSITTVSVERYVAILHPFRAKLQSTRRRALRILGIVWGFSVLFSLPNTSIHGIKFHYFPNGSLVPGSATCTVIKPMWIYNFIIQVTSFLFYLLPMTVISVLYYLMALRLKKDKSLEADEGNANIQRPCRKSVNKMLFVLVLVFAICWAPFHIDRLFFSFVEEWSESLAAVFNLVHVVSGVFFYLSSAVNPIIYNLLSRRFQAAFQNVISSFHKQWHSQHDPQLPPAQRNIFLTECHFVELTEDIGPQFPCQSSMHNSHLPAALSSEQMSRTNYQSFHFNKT
Compound,"activation of NMU-2R, expression of reporter gene luciferase (human NMU-2R [1])",effect on other GPCRs (other GPCRs),activity for NMU-1R (NMU-1R),potency of receptor activation (human NMU-2R [2]),"induction of reporter gene expression (human NMU-2R [1]; NmU alone, without forskolin)"
COc1ccc([C@@H]2CC(=O)c3c(O)cc(O[C@@H]4O[C@H](CO[C@@H]5O[C@@H](C)[C@H](O)[C@@H](O)[C@H]5O)[C@@H](O)[C@H](O)[C@H]4O)cc3O2)cc1O [Hesperidin],potential NMU-2R agonists,–,–,–,–
COc1ccc(-c2oc3c(CC=C(C)C)c(O[C@@H]4O[C@H](CO)[C@@H](O)[C@H](O)[C@H]4O)cc(O)c3c(=O)c2O[C@@H]2O[C@@H](C)[C@H](O)[C@@H](O)[C@H]2O)cc1 [Icariin],potential NMU-2R agonists,–,–,–,–
C[C@@H]1O[C@@H](OC[C@H]2O[C@@H](Oc3c(-c4ccc(O)c(O)c4)oc4cc(O)cc(O)c4c3=O)[C@H](O)[C@@H](O)[C@@H]2O)[C@H](O)[C@H](O)[C@H]1O [Rutin],–,no activity,no activity,–,–
"Neuromedin U (FRVDEEFQSPFASQSRGYFLFRPRN; ends and bridges not checked; UniProt P48645 142-166, looked up) [NmU, peptide hormone, natural ligand for NMU-2R]",best response; also recorded: significantly increased,–,–,nanomolar range,only slightly induced
